According to ChEMBL document CHEMBL5126517, “Structure-Activity Relationship in the Leucettine Family of Kinase Inhibitors” (J Med Chem, 2022):
Activity calls are given as the source filed them.

How the values were obtained:
[1] = molecular target: T1, Glycogen synthase kinase-3 (Sus scrofa, UniProt B2LUN4+I6LNT8); assay: Inhibition of porcine brain GSK-3alpha/beta using YRRAAVPPSPSLSRHSSPHQpSEDEEE as substrate incubated for 30 mins in presence of ATP by scintillation counting method; assay type: tissue-based
[2] = molecular target: Dual specificity protein kinase CLK4 (Mus musculus, UniProt O35493); assay: Inhibition of GST-fused mouse recombinant CLK4 expressed in Escherichia coli using GRSRSRSRSRSR peptide as substrate incubated for 30 mins in presence of ATP by scintillation counting method
[3] = molecular target: Dual specificity protein kinase CLK1 (Mus musculus, UniProt P22518); assay: Inhibition of GST-fused mouse recombinant CLK1 expressed in Escherichia coli using GRSRSRSRSRSR peptide as substrate incubated for 30 mins in presence of ATP by scintillation counting method
[4] = molecular target: Dual specificity protein kinase CLK2 (Mus musculus, UniProt O35491); assay: Inhibition of mouse recombinant GST-fused CLK2 expressed in Escherichia coli using GRSRSRSRSRSR peptide as substrate incubated for 30 mins in presence of ATP by scintillation counting method
[5] = molecular target: Dual specificity tyrosine-phosphorylation-regulated kinase 1A (Homo sapiens, UniProt Q13627); assay: Inhibition of GST-fused human recombinant DYRK1A expressed in Escherichia coli using GRSRSRSRSRSR peptide as substrate incubated for 30 mins in presence of ATP by scintillation counting method
[6] = molecular target: Dual specificity tyrosine-phosphorylation-regulated kinase 1B (Homo sapiens, UniProt Q9Y463)
[7] = molecular target: T2, Dual specificity tyrosine-phosphorylation-regulated kinase 2 (Homo sapiens, UniProt Q92630); assay: Inhibition of GST-fused human recombinant DYRK2 expressed in Escherichia coli using GRSRSRSRSRSR peptide as substrate incubated for 30 mins in presence of ATP by scintillation counting method
T2 sequence (Q92630 whole entry): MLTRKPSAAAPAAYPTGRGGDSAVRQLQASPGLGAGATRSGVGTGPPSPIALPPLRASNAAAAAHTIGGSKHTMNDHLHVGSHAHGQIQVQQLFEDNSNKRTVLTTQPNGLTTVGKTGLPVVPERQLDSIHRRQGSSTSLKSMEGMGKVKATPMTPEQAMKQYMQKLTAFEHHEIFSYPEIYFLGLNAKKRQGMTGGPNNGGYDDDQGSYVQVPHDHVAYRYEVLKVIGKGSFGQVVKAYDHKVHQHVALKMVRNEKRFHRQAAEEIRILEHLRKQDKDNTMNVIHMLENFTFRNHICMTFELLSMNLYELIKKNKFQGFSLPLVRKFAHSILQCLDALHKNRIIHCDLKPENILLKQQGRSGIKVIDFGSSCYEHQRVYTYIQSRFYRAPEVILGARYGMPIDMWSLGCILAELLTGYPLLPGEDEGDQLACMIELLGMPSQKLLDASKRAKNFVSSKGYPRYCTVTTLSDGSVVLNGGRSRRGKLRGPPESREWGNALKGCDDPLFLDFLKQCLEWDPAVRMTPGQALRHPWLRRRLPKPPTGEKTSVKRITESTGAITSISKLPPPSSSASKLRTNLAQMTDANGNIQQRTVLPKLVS

[8] = molecular target: T3, Dual specificity tyrosine-phosphorylation-regulated kinase 3 (Homo sapiens, UniProt O43781); assay: Inhibition of GST-fused human recombinant DYRK3 expressed in Escherichia coli using GRSRSRSRSRSR peptide as substrate incubated for 30 mins in presence of ATP by scintillation counting method
T3 sequence (O43781 whole entry): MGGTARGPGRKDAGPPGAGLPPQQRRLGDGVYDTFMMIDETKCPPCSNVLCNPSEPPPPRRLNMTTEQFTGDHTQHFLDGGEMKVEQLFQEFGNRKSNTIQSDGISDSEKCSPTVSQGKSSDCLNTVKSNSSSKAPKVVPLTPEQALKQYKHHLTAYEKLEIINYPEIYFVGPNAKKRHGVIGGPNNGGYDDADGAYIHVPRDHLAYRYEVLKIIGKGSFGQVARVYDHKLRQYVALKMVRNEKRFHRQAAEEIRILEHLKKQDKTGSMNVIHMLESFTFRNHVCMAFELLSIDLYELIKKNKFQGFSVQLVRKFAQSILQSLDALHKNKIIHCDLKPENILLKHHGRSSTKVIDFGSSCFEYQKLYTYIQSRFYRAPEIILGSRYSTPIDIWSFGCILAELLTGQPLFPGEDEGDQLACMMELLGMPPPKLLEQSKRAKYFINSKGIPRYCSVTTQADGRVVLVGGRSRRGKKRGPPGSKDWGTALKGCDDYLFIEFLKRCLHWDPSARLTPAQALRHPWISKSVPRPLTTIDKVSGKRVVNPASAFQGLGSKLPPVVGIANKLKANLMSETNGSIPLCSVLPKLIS

[9] = molecular target: Serine/threonine-protein kinase pim-1 (Homo sapiens, UniProt P11309); assay: Inhibition of human recombinant Pim1 expressed in Escherichia coli using histone H1 as substrate incubated for 30 mins in presence of ATP by scintillation counting method
HT-22 [10] = assay: Neuroprotective activity against glutamate-induced cell death in mouse HT-22 cells treated for 24 hrs by MTS assay; assay type: functional, cell-based; settings: HT-22, 24 h
U2OS = assay: Induction of PI3K/mTor-dependent autophagy in human U2OS cells assessed as number of LC3 foci per cell at 10 uM measured after 4 hrs; assay type: cell-based; settings: filed as activator
Cannabinoid receptor 1 [11] = molecular target: T4, Cannabinoid receptor 1 (Homo sapiens, UniProt P21554); assay: Antagonist activity at CP-55940-activated CB1 receptor (unknown origin) at 10 uM by beta-arrestin assay relative to control; assay type: functional; parameters: scale not given: the % may be the effect or the level left
Cannabinoid receptor 1 [12] = molecular target: T4, Cannabinoid receptor 1; assay: Antagonist activity at CP-55940-activated CB1 receptor (unknown origin) by beta-arrestin assay; assay type: functional
[13] = Neurotoxicity against mouse HT-22 cells assessed as cell survival at 10 uM treated for 24 hrs by MTS assay; assay type: toxicity, cell-based; settings: ht-22, 24 h
Mus musculus = assay: Reduction in phosphorylated Tau Thr212 residue in Tg(Dyrk1a) mutant C57BL/6J mouse brain dosed at 20 mg/kg/day, ip for 19 days by western blot analysis; assay type: functional, organism-based; settings: time 19.0 day
Cannabinoid receptor 1 [14] = molecular target: T4, Cannabinoid receptor 1; assay: […] allosteric modulation of CB1 receptor (unknown origin) expressed in HEK293 cell membrane assessed as inhibition of CP-55940-induced [35S]-GTPgammaS binding at 10 uM in presence of GDP by liquid scintillation counting method; assay type: functional, cell membranes; settings: DDE = dose-dependent effect
Casein kinase 2 = Casein kinase 2 (Homo sapiens, UniProt P67870+P68400+P19784+Q8NEV1); assay: Inhibition of human recombinant CK2 using RRRDDDSDDD peptide as substrate incubated for 30 mins in presence of ATP by scintillation counting method; assay type: protein assay
[15] = Neurotoxicity against mouse HT-22 cells assessed as cell survival treated for 24 hrs by MTS assay; assay type: toxicity, cell-based
HT-22 [16] = assay: Modulation of CLK1 pre-mRNA splicing in mouse HT-22 cells assessed as inclusion of CLK1 exon 4 by measuring change in threshold cycle at 10 uM measured after 4 hrs by real time PCR analysis; assay type: cell-based; settings: filed as modulator
HT-22 [17] = assay: Modulation of CLK1 pre-mRNA splicing in mouse HT-22 cells assessed as maximal effect of CLK1 exon 4 inclusion measured after 3 hrs by qPCR analysis; assay type: functional, cell-based
[18] = Reduction in phosphorylated Tau Thr212 residue in wild-type C57BL/6J mouse brain dosed at 20 mg/kg/day, ip for 19 days by western blot analysis; assay type: toxicity, organism-based; settings: in vivo, 456 h, time 19 day
HT-22 [19] = assay: Neuroprotective activity against glutamate-induced cell death in mouse HT-22 cells at 10 uM incubated for 24 hrs by phase contrast microscopy; assay type: functional, cell-based
HT-22 [20] = assay: Induction of PI3K/mTor-dependent autophagy in mouse HT-22 cells assessed as number of LC3 foci per cell at 10 uM incubated for 24 hrs using Lamp-1 staining based immunofluorescence microscopy; settings: filed as activator
HT-22 [21] = assay: Induction of PI3K/mTor-dependent autophagy in mouse HT-22 cells assessed as number of LC3 foci per cell at 10 uM incubated for 24 hrs using Anti-LC3 staining based immunofluorescence microscopy; settings: filed as activator
Cannabinoid receptor 1 [22] = molecular target: T4, Cannabinoid receptor 1; assay: Displacement of [3H]-CP55940 from CB1 receptor (unknown origin) expressed in HEK293 cell membrane assessed as dissociation constant at 10 uM by liquid scintillation counting method; assay type: cell membranes; settings: filed as modulator
[23] = Neurotoxicity against mouse HT-22 cells assessed as cell survival at 20 uM treated for 24 hrs by MTS assay; assay type: toxicity, cell-based; settings: ht-22, 24 h
HT-22 [24] = settings: Mus musculus, filed as modulator, dose 10.0 µM, time 6.0 hrs
[25] = molecular target: Dual specificity protein kinase CLK3 (Mus musculus, UniProt O35492); assay: Inhibition of GST-fused mouse recombinant CLK3 expressed in Escherichia coli using GRSRSRSRSRSR peptide as substrate incubated for 30 mins in presence of ATP by scintillation counting method
[26] = molecular target: T1, Glycogen synthase kinase-3; assay: Inhibition of porcine brain GSK-3alpha/beta at 10 uM using YRRAAVPPSPSLSRHSSPHQpSEDEEE as substrate incubated for 30 mins in presence of ATP by scintillation counting method; assay type: tissue-based
[27] = Drug metabolism in human liver microsomes assessed as GSH reduction metabolite at 50 uM incubated for 60 mins in presence of 13C2,15N-GSH by LC-MS/MS analysis; assay type: ADME, Microsome; settings: 1 h

Chain of Dual specificity tyrosine-phosphorylation-regulated kinase 1B (Q9Y463 whole entry, the tested form may be a part): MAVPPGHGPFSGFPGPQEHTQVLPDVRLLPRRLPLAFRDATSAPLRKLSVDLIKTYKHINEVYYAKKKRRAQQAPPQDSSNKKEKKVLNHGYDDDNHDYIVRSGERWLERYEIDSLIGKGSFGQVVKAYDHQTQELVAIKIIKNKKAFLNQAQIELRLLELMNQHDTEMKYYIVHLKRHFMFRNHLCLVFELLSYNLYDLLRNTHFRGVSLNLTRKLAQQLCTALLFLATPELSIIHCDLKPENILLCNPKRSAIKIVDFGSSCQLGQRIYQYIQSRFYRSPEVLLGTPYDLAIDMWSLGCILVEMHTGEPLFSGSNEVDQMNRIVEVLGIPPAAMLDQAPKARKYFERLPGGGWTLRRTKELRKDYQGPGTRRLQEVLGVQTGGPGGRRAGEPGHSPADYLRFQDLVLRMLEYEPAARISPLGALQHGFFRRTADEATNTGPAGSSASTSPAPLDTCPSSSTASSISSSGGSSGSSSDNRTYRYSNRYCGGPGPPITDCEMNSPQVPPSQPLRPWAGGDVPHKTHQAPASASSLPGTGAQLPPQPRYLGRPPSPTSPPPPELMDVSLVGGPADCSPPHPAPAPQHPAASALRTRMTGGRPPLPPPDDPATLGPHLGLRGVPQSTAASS
Chain of Dual specificity protein kinase CLK4 (O35493 whole entry, the tested form may be a part): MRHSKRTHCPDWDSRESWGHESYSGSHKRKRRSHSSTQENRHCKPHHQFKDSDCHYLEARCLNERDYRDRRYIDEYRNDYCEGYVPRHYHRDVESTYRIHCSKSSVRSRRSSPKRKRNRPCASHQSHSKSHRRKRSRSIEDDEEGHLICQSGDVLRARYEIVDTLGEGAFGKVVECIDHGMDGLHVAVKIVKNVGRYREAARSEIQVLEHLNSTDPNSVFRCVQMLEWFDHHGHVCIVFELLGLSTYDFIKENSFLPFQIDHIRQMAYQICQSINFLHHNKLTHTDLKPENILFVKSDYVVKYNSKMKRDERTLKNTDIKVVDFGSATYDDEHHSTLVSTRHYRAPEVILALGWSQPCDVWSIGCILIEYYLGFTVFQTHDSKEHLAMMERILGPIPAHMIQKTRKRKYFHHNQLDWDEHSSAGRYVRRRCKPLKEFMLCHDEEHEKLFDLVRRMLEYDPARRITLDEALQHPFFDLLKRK
Chain of Serine/threonine-protein kinase pim-1 (P11309 whole entry): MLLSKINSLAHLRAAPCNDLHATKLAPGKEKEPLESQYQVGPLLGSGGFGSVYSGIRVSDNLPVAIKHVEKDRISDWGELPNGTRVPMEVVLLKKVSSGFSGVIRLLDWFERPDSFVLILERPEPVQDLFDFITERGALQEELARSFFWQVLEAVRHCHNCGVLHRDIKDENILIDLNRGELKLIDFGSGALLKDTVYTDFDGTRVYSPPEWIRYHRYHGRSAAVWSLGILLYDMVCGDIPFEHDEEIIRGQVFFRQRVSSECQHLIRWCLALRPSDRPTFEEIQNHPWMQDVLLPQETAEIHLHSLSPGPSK
Chain of Dual specificity protein kinase CLK2 (O35491 whole entry, the tested form may be a part): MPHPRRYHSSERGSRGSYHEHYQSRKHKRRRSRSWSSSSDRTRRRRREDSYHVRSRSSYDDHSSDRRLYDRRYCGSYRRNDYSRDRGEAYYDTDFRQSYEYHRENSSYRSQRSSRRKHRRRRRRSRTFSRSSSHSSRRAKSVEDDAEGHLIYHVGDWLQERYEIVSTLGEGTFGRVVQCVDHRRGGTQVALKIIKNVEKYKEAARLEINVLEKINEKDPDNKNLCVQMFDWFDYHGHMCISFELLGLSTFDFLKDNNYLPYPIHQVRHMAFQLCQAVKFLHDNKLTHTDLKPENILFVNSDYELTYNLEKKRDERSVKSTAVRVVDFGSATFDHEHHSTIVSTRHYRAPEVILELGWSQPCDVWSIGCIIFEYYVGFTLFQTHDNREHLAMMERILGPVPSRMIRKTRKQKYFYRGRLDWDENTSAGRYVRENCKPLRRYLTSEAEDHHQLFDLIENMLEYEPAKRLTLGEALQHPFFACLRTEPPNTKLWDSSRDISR
Chain of Dual specificity protein kinase CLK1 (P22518 whole entry, the tested form may be a part): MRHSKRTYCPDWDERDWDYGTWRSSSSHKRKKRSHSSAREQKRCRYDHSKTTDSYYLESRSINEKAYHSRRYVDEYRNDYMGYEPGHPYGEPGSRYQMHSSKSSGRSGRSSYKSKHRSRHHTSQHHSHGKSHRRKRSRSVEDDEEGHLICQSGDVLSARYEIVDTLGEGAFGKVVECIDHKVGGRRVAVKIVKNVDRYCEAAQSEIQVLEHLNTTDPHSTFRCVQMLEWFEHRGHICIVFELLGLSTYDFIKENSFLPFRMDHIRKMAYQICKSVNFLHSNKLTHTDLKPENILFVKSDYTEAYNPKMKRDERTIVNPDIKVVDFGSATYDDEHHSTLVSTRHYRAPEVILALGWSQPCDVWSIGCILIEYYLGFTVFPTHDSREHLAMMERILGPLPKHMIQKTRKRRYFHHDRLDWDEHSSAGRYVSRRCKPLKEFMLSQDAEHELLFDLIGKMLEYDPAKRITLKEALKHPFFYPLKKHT
T4 sequence (P21554 whole entry): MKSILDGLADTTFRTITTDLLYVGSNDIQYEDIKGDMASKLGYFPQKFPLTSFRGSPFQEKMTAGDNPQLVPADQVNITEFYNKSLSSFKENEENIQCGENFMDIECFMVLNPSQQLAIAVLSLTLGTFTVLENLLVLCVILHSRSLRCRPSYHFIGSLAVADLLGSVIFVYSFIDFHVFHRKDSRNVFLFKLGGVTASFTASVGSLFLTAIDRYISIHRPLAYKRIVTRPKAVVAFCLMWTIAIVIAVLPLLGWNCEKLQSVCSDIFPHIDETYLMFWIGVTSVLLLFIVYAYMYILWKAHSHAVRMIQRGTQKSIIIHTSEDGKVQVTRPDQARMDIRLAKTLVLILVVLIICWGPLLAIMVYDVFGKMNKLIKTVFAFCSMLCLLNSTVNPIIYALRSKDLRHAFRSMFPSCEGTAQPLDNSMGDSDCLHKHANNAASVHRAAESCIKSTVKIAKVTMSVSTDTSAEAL
Chain of Dual specificity protein kinase CLK3 (O35492 whole entry, the tested form may be a part): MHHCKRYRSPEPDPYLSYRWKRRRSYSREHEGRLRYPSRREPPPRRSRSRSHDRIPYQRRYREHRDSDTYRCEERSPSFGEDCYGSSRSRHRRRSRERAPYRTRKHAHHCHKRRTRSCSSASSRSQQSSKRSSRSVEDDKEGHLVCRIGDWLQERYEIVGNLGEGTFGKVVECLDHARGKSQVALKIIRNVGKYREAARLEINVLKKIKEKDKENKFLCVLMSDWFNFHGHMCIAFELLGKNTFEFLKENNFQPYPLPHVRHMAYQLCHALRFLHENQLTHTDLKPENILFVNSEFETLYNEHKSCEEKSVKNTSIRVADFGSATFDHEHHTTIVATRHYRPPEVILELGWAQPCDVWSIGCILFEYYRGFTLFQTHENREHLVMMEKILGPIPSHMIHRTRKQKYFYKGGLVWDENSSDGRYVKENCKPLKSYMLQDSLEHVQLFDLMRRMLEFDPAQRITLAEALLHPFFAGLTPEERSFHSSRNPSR

SMILES | IC50 [1] | IC50 [2] | IC50 [3] | IC50 [4] | IC50 [5] | IC50 [6] | IC50 [7] | IC50 [8] | IC50 [9] | EC50 (HT-22 [10]) | Activity (U2OS) | Activity (Cannabinoid receptor 1 [11]; filed as antagonist) | IC50 (Cannabinoid receptor 1 [12]) | Activity (Cannabinoid receptor 1 [14]) | IC50 (Casein kinase 2) | Kb (Cannabinoid receptor 1 [22]) | Activity [23] | Activity (Cannabinoid receptor 1 [11]) | other results
COc1cc(/C=C2\N=C(Nc3ccc(N4CCCCC4)cc3)NC2=O)ccc1O | > 10 µM | 1200 nM | 750 nM | > 10 µM | 280 nM | 410 nM | 410 nM | 300 nM | 6.3 µM | 1350 nM | 10.9 | 84.1% | 297 nM |  |  |  |  |  | Activity [13]: Non-Toxic
O=C1NC(Nc2ccccc2)=N/C1=C\c1ccc2c(c1)OCO2 | 0.6 µM |  |  |  |  |  |  |  |  | 6020 nM | 11.6 | 96.8% |  | Dde | 0.51 µM | 2200 nM | Non-Toxic |  | Activity (Mus musculus): Active; IC50 at 24 h [15]: > 20 µM; Activity (U2OS; tested as the 2H-labelled form): 7.3; deltaCT (HT-22 [16]): 8.18; deltaCT (HT-22 [16]; tested as the 2H-labelled form): 7.71; Activity (Cannabinoid receptor 1 [11]; filed as antagonist, tested as the 2H-labelled form): 92.7%; Activity (HT-22 [17]): Active; Activity [18]: Non-Toxic; Activity (HT-22 [19]): Active; Activity (HT-22 [20]): Active; Activity (HT-22 [21]): Active; deltaCT (HT-22 [24]): 8.18
O=C1N=C(Nc2ccccc2)S/C1=C\c1ccc2c(c1)OCO2 |  | 1200 nM | 800 nM | > 10 µM | 10000 nM | 610 nM | > 10000 nM |  | > 10 µM |  | 5.9 |  |  |  | 2.5 µM |  |  | -5.9% | IC50 [25]: 430 nM; IC50 [26]: 2.5 µM; EC50 at 24 h [15]: > 20 µM; deltaCT (HT-22 [16]): -0.09
O=C1NC(Nc2ccccc2)=N/C1=C\c1ccc2c(c1)OCCCO2 |  | > 10000 nM | > 10000 nM |  |  | > 10000 nM | > 10000 nM |  | > 10 µM | 12500 nM | 5.6 | 89.3% |  | Dde |  | 1200 nM | Non-Toxic |  | 
COc1cc(/C=C2\N=C(Nc3ccc(N4CCN(C)CC4)cc3)NC2=O)ccc1O | 0.2 µM |  |  |  |  |  |  |  |  | > 20000 nM | 22 |  |  |  |  |  | Non-Toxic | 14.3% | Drug metabolism [27]: Metabolite_Notdetected
O=C1NC(Nc2ccc(N3CCCCC3)cc2)=N/C1=C\c1ccc2c(c1)OCO2 | > 10 µM | 1500 nM | 4200 nM | > 10 µM | 700 nM | 2100 nM | 230 nM | > 10000 nM |  | 660 nM | 11.4 | 81.7% | 91.3 nM | Dde |  | 3300 nM | Non-Toxic |  | 
COc1cc(/C=C2\N=C(Nc3ccccc3)NC2=O)ccc1O | 1.1 µM | 23 nM | 21 nM | 0.14 µM | 70 nM | 62 nM | 33 nM | 120 nM | 0.18 µM | 1280 nM | 11.7 |  | 4700 nM |  | 0.62 µM |  |  | 1.6% | IC50 [25]: 610 nM; IC50 at 24 h [15]: > 20 µM; Activity (HT-22 [20]): Active; Activity (HT-22 [21]): Active
